Assay results: PubChem BioAssay (NCI)
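Following 48 hours of exposure in 96-well plates, responses at five concentrations were used to interpolate endpoints linearly. TGI: concentration producing complete growth inhibition.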

Columns and labels:
Experiment in all cases: inhibition of tumour cell growth, NCI panel, 48 h
[1] = system: UACC-62 melanoma
[2] = system: K-562 leukemia
[3] = system: MCF7 breast
[4] = system: HOP-92 NSCLC
[5] = system: OVCAR-4 ovarian
[6] = system: T-47D breast
[7] = system: NCI/ADR-RES ovarian
[8] = system: U251 CNS
[9] = system: NCI-H226 lung
[10] = system: SK-OV-3 ovarian
[11] = system: SNB-19 CNS
[12] = system: OVCAR-8 ovarian
[13] = system: TK-10 renal
[14] = system: MDA-MB-435
[15] = system: KM12 colon
[16] = system: DU-145 prostate
[17] = system: HL-60(TB) leukemia
[18] = system: CCRF-CEM leukemia
[19] = system: UO-31 renal
[20] = system: SNB-75 CNS
[21] = system: HS 578T breast
[22] = system: UACC-257 melanoma
[23] = system: RPMI-8226 leukemia
[24] = system: SW-620 colon
[25] = system: A549 NSCLC
[26] = system: OVCAR-3 ovarian
[27] = system: IGROV1 ovarian
[28] = system: MDA-MB-231 breast
[29] = system: HCT-116 colon
[30] = system: COLO 205 colon
[31] = system: HT29 colon
[32] = system: A498 renal
[33] = system: 786-0 renal
[34] = system: MDA-N
[35] = system: SK-MEL-5 melanoma
[36] = system: NCI-H23 lung
[37] = system: MOLT-4 leukemia
[38] = system: EKVX NSCLC
[39] = system: SK-MEL-28 melanoma
[40] = system: OVCAR-5 ovarian
[41] = system: SK-MEL-2 melanoma
[42] = system: SF-268 CNS
[43] = system: RXF 393 renal
[44] = system: SF-295 CNS
[45] = system: NCI-H460 lung
[46] = system: M14 melanoma
[47] = system: HCC-2998 colon
[48] = system: SN12C renal
[49] = system: HCT-15 colon
[50] = system: HOP-62 NSCLC
[51] = system: ACHN renal
[52] = system: BT-549 breast
[53] = system: SF-539 CNS
[54] = system: CAKI-1 renal
[55] = system: NCI-H522 lung
[56] = system: PC-3 prostate
[57] = system: LOX IMVI melanoma
[58] = system: MALME-3M melanoma

COc1ccc(/C=C2/SC(=Nc3ccccc3)N(NC(=O)Cc3ccccc3)C2=O)cc1
TGI [1]: > 100 µM
TGI [2]: > 100 µM
TGI [3]: > 100 µM
TGI [4]: > 100 µM
TGI [5]: > 100 µM
TGI [6]: > 100 µM
TGI [7]: > 100 µM
TGI [8]: > 100 µM
TGI [9]: > 100 µM
TGI [10]: > 100 µM
TGI [11]: > 100 µM
TGI [12]: > 100 µM
TGI [13]: > 100 µM
TGI [14]: > 100 µM
TGI [15]: > 100 µM
TGI [16]: > 100 µM
TGI [17]: > 100 µM
TGI [18]: > 100 µM
TGI [19]: > 100 µM
TGI [20]: > 100 µM
TGI [21]: > 100 µM
TGI [22]: > 100 µM
TGI [23]: > 100 µM
TGI [24]: > 100 µM
TGI [25]: > 100 µM
TGI [26]: > 100 µM
TGI [27]: > 100 µM
TGI [28]: > 100 µM
TGI [29]: > 100 µM
TGI [30]: > 100 µM
TGI [31]: > 100 µM
TGI [32]: > 100 µM
TGI [33]: > 100 µM
TGI [34]: > 100 µM
TGI [35]: > 100 µM
TGI [36]: > 100 µM
TGI [37]: > 100 µM
TGI [38]: > 100 µM
TGI [39]: > 100 µM
TGI [40]: > 100 µM
TGI [41]: > 100 µM
TGI [42]: > 100 µM
TGI [43]: > 100 µM
TGI [44]: > 100 µM
TGI [45]: > 100 µM
TGI [46]: > 100 µM
TGI [47]: > 100 µM
TGI [48]: > 100 µM
TGI [49]: > 100 µM
TGI [50]: > 100 µM
TGI [51]: > 100 µM
TGI [52]: > 100 µM
TGI [53]: > 100 µM

COc1ccccc1N1CCN(S(=O)(=O)c2ccc(Cl)cc2)C1=N
TGI [1]: > 100 µM
TGI [2]: > 100 µM
TGI [3]: > 100 µM
TGI [54]: > 100 µM
TGI [5]: > 100 µM
TGI [6]: > 100 µM
TGI [7]: > 100 µM
TGI [8]: > 100 µM
TGI [10]: > 100 µM
TGI [11]: > 100 µM
TGI [12]: > 100 µM
TGI [13]: > 100 µM
TGI [14]: > 100 µM
TGI [15]: > 100 µM
TGI [16]: > 100 µM
TGI [19]: > 100 µM
TGI [20]: > 100 µM
TGI [21]: > 100 µM
TGI [22]: > 100 µM
TGI [23]: > 100 µM
TGI [24]: > 100 µM
TGI [25]: > 100 µM
TGI [26]: > 100 µM
TGI [28]: > 100 µM
TGI [29]: > 100 µM
TGI [55]: > 100 µM
TGI [30]: > 100 µM
TGI [56]: > 100 µM
TGI [32]: > 100 µM
TGI [33]: > 100 µM
TGI [34]: > 100 µM
TGI [35]: > 100 µM
TGI [36]: > 100 µM
TGI [37]: > 100 µM
TGI [38]: > 100 µM
TGI [39]: > 100 µM
TGI [40]: > 100 µM
TGI [41]: > 100 µM
TGI [42]: > 100 µM
TGI [43]: > 100 µM
TGI [44]: > 100 µM
TGI [45]: > 100 µM
TGI [46]: > 100 µM
TGI [48]: > 100 µM
TGI [49]: > 100 µM
TGI [50]: > 100 µM
TGI [51]: > 100 µM
TGI [52]: > 100 µM
TGI [53]: > 100 µM

NC(=O)C1=C(O)[C@@]2(O)C(=O)C3=C(O)c4c(O)cccc4CC3C[C@H]2CC1=O (stereo partly drawn)
TGI [1]: 8.61 µM
TGI [2]: > 61.5 µM
TGI [3]: > 49.9 µM
TGI [4]: 6.05 µM
TGI [54]: 26.7 µM
TGI [5]: > 85.1 µM
TGI [6]: 23.8 µM
TGI [7]: 13.7 µM
TGI [8]: 12.8 µM
TGI [9]: 8.43 µM
TGI [57]: 10.5 µM
TGI [10]: > 28.7 µM
TGI [11]: 10.9 µM
TGI [12]: 17.3 µM
TGI [13]: 43.7 µM
TGI [14]: 40.2 µM
TGI [15]: 23.4 µM
TGI [16]: 18.6 µM
TGI [17]: 14.9 µM
TGI [18]: 10.4 µM
TGI [58]: 5.23 µM
TGI [19]: 10.5 µM
TGI [20]: 8.35 µM
TGI [21]: 13.7 µM
TGI [22]: 28.6 µM
TGI [23]: 6.12 µM
TGI [24]: 33.6 µM
TGI [25]: 14.9 µM
TGI [26]: 14.7 µM
TGI [27]: 12.5 µM
TGI [28]: 11.1 µM
TGI [29]: 12 µM
TGI [55]: 7.72 µM
TGI [30]: 3.17 µM
TGI [31]: 7.34 µM
TGI [56]: 9.71 µM
TGI [32]: 12.9 µM
TGI [33]: 17.6 µM
TGI [34]: 41.2 µM
TGI [35]: 3.67 µM
TGI [36]: 8.89 µM
TGI [37]: 10.6 µM
TGI [38]: 9.23 µM
TGI [39]: 22.8 µM
TGI [40]: 12.3 µM
TGI [41]: 4.72 µM
TGI [42]: 17.8 µM
TGI [43]: 9.58 µM
TGI [44]: 13.5 µM
TGI [45]: 11.8 µM
TGI [46]: 13.2 µM
TGI [47]: 16.1 µM
TGI [48]: 14.5 µM
TGI [49]: 6.21 µM
TGI [50]: 14.1 µM
TGI [51]: 19.5 µM
TGI [52]: 9.46 µM
TGI [53]: 13.4 µM

CC(=Nc1ccc(Cl)cc1)c1ccncc1
TGI [2]: > 100 µM
TGI [3]: > 100 µM
TGI [4]: > 100 µM
TGI [54]: > 100 µM
TGI [5]: > 100 µM
TGI [6]: > 100 µM
TGI [7]: > 100 µM
TGI [8]: > 100 µM
TGI [9]: > 100 µM
TGI [57]: > 100 µM
TGI [11]: > 100 µM
TGI [12]: > 100 µM
TGI [14]: > 100 µM
TGI [15]: > 100 µM
TGI [16]: > 100 µM
TGI [18]: > 100 µM
TGI [58]: > 100 µM
TGI [19]: > 100 µM
TGI [20]: > 100 µM
TGI [21]: > 100 µM
TGI [22]: > 100 µM
TGI [23]: > 100 µM
TGI [24]: > 100 µM
TGI [25]: > 100 µM
TGI [26]: > 100 µM
TGI [28]: > 100 µM
TGI [29]: > 100 µM
TGI [55]: > 100 µM
TGI [30]: > 100 µM
TGI [31]: > 100 µM
TGI [56]: > 100 µM
TGI [32]: > 100 µM
TGI [33]: > 100 µM
TGI [34]: > 100 µM
TGI [35]: > 100 µM
TGI [36]: > 100 µM
TGI [37]: > 100 µM
TGI [38]: > 100 µM
TGI [39]: > 100 µM
TGI [40]: > 100 µM
TGI [41]: > 100 µM
TGI [42]: > 100 µM
TGI [43]: > 100 µM
TGI [44]: > 100 µM
TGI [45]: > 100 µM
TGI [46]: > 100 µM
TGI [47]: > 100 µM
TGI [48]: > 100 µM
TGI [49]: > 100 µM
TGI [50]: > 100 µM
TGI [51]: > 100 µM
TGI [52]: > 100 µM
TGI [53]: 77.9 µM
